Reference: patent publication US8871765B2, “Substituted 4-(4-fluoro-3-(piperazine-1-carbonyl)benzyl)phthalazin-1(2H)-one derivatives as poly (ADP-ribose) polymerase-1 inhibitors” (Cadila Healthcare Limited, priority 2010, dated 2014)

How the values were obtained:
[1] = target: T1, PARP-1 (Homo sapiens, UniProt P09874); assay: PARP-1 inhibitory activity, HT universal colorimetric PARP assay kit (Trevigen); assay type: biochemical; conditions: HT universal colorimetric PARP assay kit; read-out: PARP-1 activity in vitro IC50 nM)
T1 construct: purchased Trevigen
T1 sequence (P09874 whole entry): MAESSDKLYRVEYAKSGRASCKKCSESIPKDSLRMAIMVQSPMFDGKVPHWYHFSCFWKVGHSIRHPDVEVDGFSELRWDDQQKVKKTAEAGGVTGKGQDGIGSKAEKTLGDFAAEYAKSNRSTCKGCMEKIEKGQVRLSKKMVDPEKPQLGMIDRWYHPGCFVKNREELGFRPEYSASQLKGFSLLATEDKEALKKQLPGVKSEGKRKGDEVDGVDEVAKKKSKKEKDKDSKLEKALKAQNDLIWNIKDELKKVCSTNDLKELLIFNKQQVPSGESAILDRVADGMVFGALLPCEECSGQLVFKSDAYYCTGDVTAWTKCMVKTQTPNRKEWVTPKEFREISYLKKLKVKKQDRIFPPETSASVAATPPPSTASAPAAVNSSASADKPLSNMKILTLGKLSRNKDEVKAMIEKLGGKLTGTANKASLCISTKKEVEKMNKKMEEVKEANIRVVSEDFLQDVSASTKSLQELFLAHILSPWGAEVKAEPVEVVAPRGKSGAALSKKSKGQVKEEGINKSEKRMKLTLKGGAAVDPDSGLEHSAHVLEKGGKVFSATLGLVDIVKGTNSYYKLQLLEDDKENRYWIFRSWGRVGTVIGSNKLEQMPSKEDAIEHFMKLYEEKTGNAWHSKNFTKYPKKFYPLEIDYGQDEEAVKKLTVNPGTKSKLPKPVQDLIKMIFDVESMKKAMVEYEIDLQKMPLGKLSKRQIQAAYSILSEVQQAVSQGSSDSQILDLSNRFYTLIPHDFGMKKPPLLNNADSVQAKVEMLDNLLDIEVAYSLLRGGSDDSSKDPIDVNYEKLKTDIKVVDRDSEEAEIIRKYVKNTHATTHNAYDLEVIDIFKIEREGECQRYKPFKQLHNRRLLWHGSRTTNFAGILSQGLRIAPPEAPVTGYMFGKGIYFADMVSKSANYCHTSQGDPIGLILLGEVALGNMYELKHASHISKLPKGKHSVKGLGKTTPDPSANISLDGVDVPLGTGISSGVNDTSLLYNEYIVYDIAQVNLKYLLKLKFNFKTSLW
Description: The compounds were tested for PARP-1 inhibitory activity by using HT universal colorimetric PARP assay kit obtained from Trevigen, following manufacturer's protocol.

[2] = tested on: MCF-7 cell line; assay: Potentiation of cell killing activity of Methyl Methane Sulphonate (MMS) in MCF-7 cells, MTT assay; assay type: cell-based; conditions: compound at 100 nM, cell survival without/with alkylating agent MMS
Description: Potentiation of cell killing activity of Methyl Methane Sulphonate (MMS) by selected compounds according to present invention was evaluated in MCF-7 cell line obtained from National Centre for Cell Science, Pune, by using MTT assay according to general protocol described in Methods in Molecular Biology, Volume-43, In vitro Toxicity Testing Protocol, Chapter-6, page: 137-149. Compounds were tested for PARP 1 activity based on percent cell survival of MCF-7 cells with alkylating agent MMS.

| SMILES | IC50 [1] [nM] | Survival affected by drug [(−MMS/+MMS)] at 100 nM [2] |
| --- | --- | --- |
| CC(C)(Oc1ccccn1)C(=O)N1CCN(C(=O)c2cc(Cc3n[nH]c(=O)c4ccccc34)ccc2F)CC1 [Example 17, 4-(4-fluoro-3-(4-(2-methyl-2-(pyridin-2-yloxy)propanoyl)piperazine-1-carbonyl)benzyl)phthalazin-1(2H)-one] | 13.9 | 1.93 |
| CC(C)(Sc1ccc(F)cc1)C(=O)N1CCN(C(=O)c2cc(Cc3n[nH]c(=O)c4ccccc34)ccc2F)CC1 [Example 22, 4-(4-fluoro-3-(4-(2-((4-fluorophenyl)thio)-2-methylpropanoyl)piperazine-1-carbonyl)benzyl)phthalazin-1(2H)-one] | 5.3 | 2.1 |
| COc1ccc(OC(C)(C)C(=O)N2CCN(C(=O)c3cc(Cc4n[nH]c(=O)c5ccccc45)ccc3F)CC2)cc1 [Example 3, 4-(4-fluoro-3-(4-(2-methyl-2-(4-methoxyphenoxy)propanoyl)piperazine-1-carbonyl)benzyl)phthalazin-1(2H)-one] | 11 | 2.07 |
| CC(C)(Sc1ccc(Br)cc1)C(=O)N1CCN(C(=O)c2cc(Cc3n[nH]c(=O)c4ccccc34)ccc2F)CC1 [Example 47, 4-(3-(4-(2-((4-bromophenyl)thio)-2-methylpropanoyl)piperazine-1-carbonyl)-4-fluorobenzyl)phthalazin-1(2H)-one] | 9.16 | 2.12 |
| CC(C)(Sc1ccc(Cl)cc1Cl)C(=O)N1CCN(C(=O)c2cc(Cc3n[nH]c(=O)c4ccccc34)ccc2F)CC1 [Example 31, 4-(3-(4-(2-((2,4-dichlorophenyl)thio)-2-methylpropanoyl)piperazine-1-carbonyl)-4-fluorobenzyl)phthalazin-1(2H)-one] | 3.05 | 1.94 |
| CC(C)(Nc1ccccc1)C(=O)N1CCN(C(=O)c2cc(Cc3n[nH]c(=O)c4ccccc34)ccc2F)CC1 [Example 35, 4-(4-fluoro-3-(4-(2-methyl-2-(phenylamino)-propanoyl)piperazine-1-carbonyl)benzyl)phthalazin-1(2H)-one] | 3.56 | 3.33 |
| CC(C)(Sc1cccc(F)c1)C(=O)N1CCN(C(=O)c2cc(Cc3n[nH]c(=O)c4ccccc34)ccc2F)CC1 [Example 32, 4-(4-fluoro-3-(4-(2-((3-fluorophenyl)thio)-2-methylpropanoyl)piperazine-1-carbonyl)benzyl)phthalazin-1(2H)-one] | 5.7 | 2.08 |
| O=C(c1cc(Cc2n[nH]c(=O)c3ccccc23)ccc1F)N1CCN(C(=O)C2CC2)CC1 [AZD, reference compound] | – | 2.19 |
| CC(C)(Sc1ccccc1Br)C(=O)N1CCN(C(=O)c2cc(Cc3n[nH]c(=O)c4ccccc34)ccc2F)CC1 [Example 29, 4-(3-(4-(2-((2-bromophenyl)thio)-2-methylpropanoyl)piperazine-1-carbonyl)-4-fluorobenzyl)phthalazin-1(2H)-one] | 8.6 | 2.22 |
| CC(C)(Sc1cc(Cl)ccc1Cl)C(=O)N1CCN(C(=O)c2cc(Cc3n[nH]c(=O)c4ccccc34)ccc2F)CC1 [Example 33, 4-(3-(4-(2-((2,5-dichlorophenyl)thio)-2-methylpropanoyl)piperazine-1-carbonyl)-4-fluorobenzyl)phthalazin-1(2H)-one] | 7.9 | 1.98 |
| CC(C)(SC1CCCC1)C(=O)N1CCN(C(=O)c2cc(Cc3n[nH]c(=O)c4ccccc34)ccc2F)CC1 [Example 36, 4-(3-(4-(2-(cyclopentylthio)-2-methylpropanoyl)piperazine-1-carbonyl)-4-fluorobenzyl)phthalazin-1(2H)-one] | 5.17 | 2.59 |
| Cc1cc(OC(C)(C)C(=O)N2CCN(C(=O)c3cc(Cc4n[nH]c(=O)c5ccccc45)ccc3F)CC2)cc(C)c1Br [Example 37, 4-(3-(4-(2-(4-bromo-3,5-dimethylphenoxy)-2-methylpropanoyl)piperazine-1-carbonyl)-4-fluorobenzyl)phthalazin-1(2H)-one] | 16.5 | 1.61 |
| CC(C)(C(=O)N1CCN(C(=O)c2cc(Cc3n[nH]c(=O)c4ccccc34)ccc2F)CC1)[S+]([O-])c1ccc(F)cc1 (stereo not shown) [Example 25, 4-(4-fluoro-3-(4-(2-((4-fluorophenyl)sulfinyl)-2-methylpropanoyl)piperazine-1-carbonyl)benzyl)phthalazin-1(2H)-one] | 5.94 | 2.15 |
| CC(C)(C(=O)N1CCN(C(=O)c2cc(Cc3n[nH]c(=O)c4ccccc34)ccc2F)CC1)[S+]([O-])c1ccc(Cl)cc1Cl (stereo not shown) [Example 39, 4-(3-(4-(2-(2,4-dichlorophenylsulfinyl)-2-methylpropanoyl)piperazine-1-carbonyl)-4-fluorobenzyl)phthalazin-1(2H)-one] | 9.47 | 2.29 |
| CC(C)(Sc1ccccn1)C(=O)N1CCN(C(=O)c2cc(Cc3n[nH]c(=O)c4ccccc34)ccc2F)CC1 [Example 38, 4-(4-fluoro-3-(4-(2-methyl-2-(pyridin-2-ylthio)propanoyl)piperazine-1-carbonyl)benzyl)phthalazin-1(2H)-one] | 5 | 1.96 |
| CC(C)(C(=O)N1CCN(C(=O)c2cc(Cc3n[nH]c(=O)c4ccccc34)ccc2F)CC1)S(=O)(=O)c1ccccc1 [Example 23, 4-(4-fluoro-3-(4-(2-methyl-2-(phenylsulfonyl)propanoyl)piperazine-1-carbonyl)benzyl)phthalazin-1(2H)-one] | 4.23 | 2.11 |
| CC(C)(Sc1ccccc1)C(=O)N1CCN(C(=O)c2cc(Cc3n[nH]c(=O)c4ccccc34)ccc2F)CC1 [Example 46, 4-(4-fluoro-3-(4-(2-methyl-2-(phenylthio)propanoyl)piperazine-1-carbonyl)benzyl)phthalazin-1(2H)-one] | 10.6 | 2.28 |
| CC(C)(C(=O)N1CCN(C(=O)c2cc(Cc3n[nH]c(=O)c4ccccc34)ccc2F)CC1)S(=O)(=O)c1ccc(F)cc1 [Example 24, 4-(4-fluoro-3-(4-(2-((4-fluorophenyl)sulfonyl)-2-methylpropanoyl)piperazine-1-carbonyl)benzyl)phthalazin-1(2H)-one] | 4.66 | 2.28 |
| CC(C)(Oc1cccc(C(F)(F)F)c1)C(=O)N1CCN(C(=O)c2cc(Cc3n[nH]c(=O)c4ccccc34)ccc2F)CC1 [Example 21, 4-(4-fluoro-3-(4-(2-methyl-2-(3-(trifluoromethyl)phenoxy)propanoyl)piperazine-1-carbonyl)benzyl)phthalazin-1(2H)-one] | 12 | 1.62 |
| COc1cccc(SC(C)(C)C(=O)N2CCN(C(=O)c3cc(Cc4n[nH]c(=O)c5ccccc45)ccc3F)CC2)c1 [Example 28, 4-(4-fluoro-3-(4-(2-((3-methoxyphenyl)thio)-2-methylpropanoyl)piperazine-1-carbonyl)benzyl)phthalazin-1(2H)-one] | 7.08 | 2.08 |
| CC(C)(Sc1ccc(F)cc1F)C(=O)N1CCN(C(=O)c2cc(Cc3n[nH]c(=O)c4ccccc34)ccc2F)CC1 [Example 27, 4-(3-(4-(2-((2,4-difluorophenyl)thio)-2-methylpropanoyl)piperazine-1-carbonyl)-4-fluorobenzyl)phthalazin-1(2H)-one] | 5.17 | 2.49 |
| CC(C)(Oc1ccccc1[N+](=O)[O-])C(=O)N1CCN(C(=O)c2cc(Cc3n[nH]c(=O)c4ccccc34)ccc2F)CC1 [Example 19, 4-(4-fluoro-3-(4-(2-methyl-2-(2-nitrophenoxy)propanoyl)piperazine-1-carbonyl)benzyl)phthalazin-1(2H)-one] | 12.4 | 2.19 |
| CC(C)(Oc1ccc(F)cc1F)C(=O)N1CCN(C(=O)c2cc(Cc3n[nH]c(=O)c4ccccc34)ccc2F)CC1 [Example 26, 4-(3-(4-(2-(2,4-difluorophenoxy)-2-methylpropanoyl)piperazine-1-carbonyl)-4-fluorobenzyl)phthalazin-1(2H)-one] | 6.43 | 2.59 |
| CC(C)(Nc1ccc(F)cc1)C(=O)N1CCN(C(=O)c2cc(Cc3n[nH]c(=O)c4ccccc34)ccc2F)CC1 [Example 34, 4-(4-fluoro-3-(4-(2-((4-fluorophenyl)amino)-2-methylpropanoyl)piperazine-1-carbonyl)-benzyl)phthalazin-1(2H)-one] | 6.68 | 2.85 |
| CC(C)(Oc1ccc(Br)cc1Cl)C(=O)N1CCN(C(=O)c2cc(Cc3n[nH]c(=O)c4ccccc34)ccc2F)CC1 [Example 20, 4-(3-(4-(2-(4-bromo-2-chlorophenoxy)-2-methylpropanoyl)piperazine-1-carbonyl)-4-fluorobenzyl)phthalazin-1(2H)-one] | 14.3 | 2.15 |
